Test results from patent US4380644A, “2-Oxoimidazolidine derivatives” (Tanabe Siyaku Co., Ltd., priority 1980, dated 1983).

What was measured:
[1] = target: T1, angiotensin-converting enzyme (ACE) (Rattus norvegicus, UniProt P47820); assay: ACE-inhibitory activity in vivo (pressor response to angiotensin I); conditions: 1.0 mg/kg orally, anesthetized normotensive rats; for Duration of action: ACE inhibition; for inhibition at 1 mg/kg: rat, read-out: ACE-inhibitory activity (%), percentage inhibition of ACE-activity in vivo
T1 construct: Normotensive rats were anesthetized with urethane; from tissue; host or cells: endogenous enzyme of the whole living animal (normotensive rats, in vivo)
T1 sequence (P47820 36-1313): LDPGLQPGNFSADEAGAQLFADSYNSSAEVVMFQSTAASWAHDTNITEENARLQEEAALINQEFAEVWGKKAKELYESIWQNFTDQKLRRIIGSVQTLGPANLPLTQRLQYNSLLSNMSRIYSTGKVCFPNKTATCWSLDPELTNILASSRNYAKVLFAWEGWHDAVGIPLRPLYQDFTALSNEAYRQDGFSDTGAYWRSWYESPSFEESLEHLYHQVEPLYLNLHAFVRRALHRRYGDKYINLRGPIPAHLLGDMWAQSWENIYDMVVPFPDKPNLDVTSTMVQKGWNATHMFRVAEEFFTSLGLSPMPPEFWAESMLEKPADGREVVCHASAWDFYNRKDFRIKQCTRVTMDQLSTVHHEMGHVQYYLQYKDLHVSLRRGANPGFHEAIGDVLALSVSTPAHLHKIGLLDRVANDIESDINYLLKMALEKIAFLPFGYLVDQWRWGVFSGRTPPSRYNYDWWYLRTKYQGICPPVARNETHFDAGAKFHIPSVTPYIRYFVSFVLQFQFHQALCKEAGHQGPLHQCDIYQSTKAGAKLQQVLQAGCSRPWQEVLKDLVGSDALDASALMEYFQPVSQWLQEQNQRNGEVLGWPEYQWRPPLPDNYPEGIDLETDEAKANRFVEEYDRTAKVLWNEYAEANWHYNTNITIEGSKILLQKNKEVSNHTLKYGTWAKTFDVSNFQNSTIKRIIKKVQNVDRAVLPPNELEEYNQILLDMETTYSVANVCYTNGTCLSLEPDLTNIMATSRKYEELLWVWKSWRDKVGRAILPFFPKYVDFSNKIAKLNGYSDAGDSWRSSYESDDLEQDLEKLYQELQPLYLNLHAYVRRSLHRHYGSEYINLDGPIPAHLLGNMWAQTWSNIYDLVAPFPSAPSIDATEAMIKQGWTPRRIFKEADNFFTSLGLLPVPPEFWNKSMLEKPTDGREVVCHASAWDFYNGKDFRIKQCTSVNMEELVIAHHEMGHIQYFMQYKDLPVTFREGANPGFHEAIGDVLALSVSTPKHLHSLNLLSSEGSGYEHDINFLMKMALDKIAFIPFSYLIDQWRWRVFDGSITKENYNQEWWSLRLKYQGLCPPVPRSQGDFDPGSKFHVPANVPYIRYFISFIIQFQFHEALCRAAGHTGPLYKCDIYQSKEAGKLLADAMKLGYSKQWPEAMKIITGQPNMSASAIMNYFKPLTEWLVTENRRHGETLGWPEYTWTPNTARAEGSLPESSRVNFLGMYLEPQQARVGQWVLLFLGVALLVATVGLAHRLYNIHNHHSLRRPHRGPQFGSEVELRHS
Method: ACE-inhibitory activity in vivo:
Normotensive rats were anesthetized with urethane (1.5 g/kg, s.c.), and agiotensin I (75~300 ng/kg) was injected into the femoral vein of the rates. The pressor response to angiotensin I was measured with a pressure transducer connected to the carotid artery. Then, a test compound was administered orally thereto at a dose of 1.0 mg/kg, and angiotensin I (300 ng/kg) was further injected intravenously at intervals. The ACE-inhibitory activity of the test compound was estimated from the pressor responses to angiotensin I which were obtained before and after oral administration of the test compound.

[2] = tested on: spontaneously hypertensive rats (SHR); assay: Hypotensive activity in SHR; format: in vivo; conditions: 50 mg/kg orally; for Decrease in blood pressure (-ΔmmHg): SHR fasted overnight, systolic blood pressure, tail plethysmography
Method: Hypotensive activity in SHR:
A test compound suspended in an aqueous carboxymethylcellulose solution was administered orally to spontaneously hypertensive rats (SHR) fasted overnight. The systolic blood pressure of the rats was measured by the tail plethysmographic technique (The Journal of Laboratory and Clicical Medicine 78 (1971), page 957). The hypotensive activity of the test compound was estimated from the decreased level of blood pressure.

mice = assay: Toxicity after oral administration to mice; format: in vivo; conditions: 3 g/kg orally
Method: For example, when (4S)-1-benzyl- 3-[(2S)-3-benzoylthio-2-methylpropionyl]-2-oxo-imidazolidine-4-carboxylic acid was administered orally to mice at a dose of 3 g/kg, no mouse died within 7 days after said administration.

Row | SMILES | Duration of action [1] [min] | inhibition at 1 mg/kg ([1]; angiotensin I 300 ng/kg i.v.) [%] | Decrease in blood pressure (-ΔmmHg) [2] [mmHg] | Decrease in blood pressure (-ΔmmHg) ([2]; listed as (4S)-1-benzyl-3-[(2S)-3-benzoylthio-2-methylpropionyl]-2-oxo-imidazolidine-4-car) | Duration of action ([2]; hypotensive activity, SHR, 50 mg/kg) [h] | Duration of action (hours) ([2]; hypotensive activity, SHR, listed as (4S)-1-benzyl-3-[(2S)-3-benzoylthio-2-methylpropionyl]-2-oxo-imidazolidine-4-car, 50 mg/kg) | Mortality within 7 days after administration (mice) | ACE-inhibitory activity (%), percentage inhibition of ACE-activity in vivo ([1]; angiotensin I 300 ng/kg i.v.) | Duration of action ([2]; hypotensive activity, SHR) [h]
1 | CCN1C[C@@H](C(=O)O)N(C(=O)[C@H](C)CSC(=O)c2ccccc2)C1=O [C2 H5 C6 H5, (4S)-1-ethyl-3-[(2S)-3-benzoylthio-2-methylpropionyl]-2-oxo-imidazolidine-4-carboxylic acid] | > 120 | 84 |  |  |  |  |  |  | 
2 | C[C@H](CSC(=O)c1ccccc1)C(=O)N1C(=O)N(Cc2ccccc2)C[C@H]1C(=O)O [C6 H5 CH2 C6 H5, (4S)-1-benzyl-3-[(2S)-3-benzoylthio-2-methylpropionyl]-2-oxo-imidazolidine-4-carboxylic acid] | > 120 | 76 | 44 | about 44 mmHg | > 6 | more than 6 hours | no mouse died |  | 
3 | C[C@H](CSC(=O)c1ccccc1)C(=O)N1C(=O)N(C)C[C@H]1C(=O)O [CH3 C6 H5, (4S)-1-methyl-3-[(2S)-3-benzoylthio-2-methylpropionyl]-2-oxo-imidazolidine-4-carboxylic acid] | > 120 | 88 |  |  |  |  |  | about 90% | 
4 | CC(=O)SC[C@@H](C)C(=O)N1C(=O)N(C)C[C@H]1C(=O)O [CH3 CH3, (4S)-1-methyl-3-[(2S)-3-acetylthio-2-methylpropionyl]-2-oxo-imidazolidine-4-carboxylic acid] | > 120 | 67 | 37 |  |  |  |  |  | > 6
